System: E-cadherin and related antigens ECRA100 and ECRA135 in MCF-7 cells
Experiment: E-cadherin, ECRA135 and ECRA100 levels in cytosoluble extracts of toxin-treated MCF-7 cells (SDS-PAGE, anti-E-cadherin immunoblotting, densitometry)
Assay type: cell-based, human
Details: for pattern of E-cadherin and related antigens on immunoblot (FIG. 1): 50 nM each agent, 18 hr at 37° C.; for concentration above which the pattern characteristic for each group of toxins is maintained when the two groups are present at the same time: both toxins together in the cell culture
Method: The MCF-7 cell line employed in these experiments has been obtained from the European Collection of Cell Cultures (ECACC No: 86012803; CB No: CB2705). Cells have been maintained at 37° C. in an atmosphere containing 5% CO2 in Petri dishes, in a culture medium composed of Dulbecco's modified MEM, containing foetal bovine serum (10%), nonessential aminoacids (1%) and 2 mM glutamine. Cell treatments have been carried out by adding appropriate aliquots of toxins from stock solutions prepared with absolute ethanol, and control cultures received an identical volume of vehicle. Working solutions of the different agents were obtained by serial dilutions of stock solutions, represented by 50 μM okadaic acid and 500 μM yessotoxin, respectively, and were stored at −20° C., in glass vials, protected from light. The ethanol concentrations in culture media has never been higher than 0.5% (v/v), which represents a concentration uncapable to affect the molecular parameters measured in these experiments.
The cellular extracts employed in the present analyses have been obtained from the cells adhering to culture vessels at the end of the indicated treatments, and the procedure was carried out at 4° C. Cells were washed three times with 20 mM phosphate buffer, pH 7.4, containing 0.15 M NaCl (PBS) and were then lysed by the addition of 25 μl of lysis buffer/cm^2 of culture surface area, and by keeping cells in contact with this solution for 10 minutes at 4° C. The lysis buffer was composed of PBS, containing: 0.5% (w/v) Na deoxycholate, 0.1% (w/v) Na dodecylsulfate (SDS), 1% (v/v) Triton X-100, 0.1 mg/ml phenylmethyl sulfonyl fluoride (PMSF). Cellular lysates were then centrifuged for 30 minutes at 16000 xg, and the supernatants of this centrifugation (cytosoluble extracts) were recovered and used to measure their total protein content by a […] method, using bicinchoninic acid (Smith P. K et al., 1985, Anal. Biochem., 150:76). Cytosoluble extracts were then brought to a final 2% SDS, 5% β-mercaptoethanol and 20% glycerol concentration, and were treated for 5 min at 100° C., before being used for protein fractionation by electrophoresis.
Samples, usually containing the same amount of protein, corresponding to about 50 μg, were subjected to polyacrylamide gel electrophoresis in the presence of SDS, according to the procedure by Laemmli (Laemmli U. K. , 1970, Nature, 227:680), using separating gels containing 10% acrylamide monomer. At the end of the electrophoresis (running time about 3 hr at 170 Volts), proteins were electrophoretically transferred to a nitrocellulose membrane (Protran B83), and were then stained with Ponceau S.
Aspecific binding sites on the membrane were then saturated by a 1 hr incubation at room temperature with a solution composed of 20 mM Tris-HCl, pH 7.5 at 25° C., 150 mM NaCl (TBS), containing 3% (w/v) low fat dry milk and 1 mM CaCl2. The membrane was then incubated with TBS containing 1 % (w/v) low fat dry milk, 1 mM CaCl2, and 2 μg of anti-E-cadherin antibody/ml buffer, for 1 hr at room temperature. At the end of the incubation the membrane was washed four times for 5 min and then a fifth time for 10 min with TBS containing 0.05% (w/v) Tween 20 (TBS-Tween buffer). The membrane was then incubated with TBS-Tween containing 1% (w/v) low fat dry milk and secondary antibody (horse radish peroxydase conjugated anti-mouse Ig antibody) at a 1:3000 dilution, for 1 hr at room temperature. At the end of this incubation, the membrane was washed as previously described, and the antigens were then detected by the ECL procedure and autoradiography, using Kodak X-Omat films. The electropherogram was then subjected to densitometric scanning, and the absorbance measured from the peak area was recorded and used to quantify the detected antigens. […]

[1] = MCF-7 cells treated with 50 nM OA
[2] = MCF-7 cells, YTX 1 μM, 24 hr incubation, n=4

## C=C1[C@@H](O)[C@@H]2O[C@]3(CC[C@H](/C=C/[C@@H](C)[C@@H]4CC(C)=C[C@@]5(O[C@H](C[C@@](C)(O)C(=O)O)CC[C@H]5O)O4)O3)CC[C@H]2O[C@@H]1[C@@H](O)C[C@H](C)[C@H]1O[C@@]2(CCCCO2)CC[C@H]1C [OA, okadaic acid]
[1]
  E-cadherin, % of total immunoreactivity: 77.6±12.3%
  ECRA100, % of total immunoreactivity: 1.8±3.1%
  ECRA135, % of total immunoreactivity: 20.6±9.6%
  relative total immunoreactivity (Σ), % of that in extracts from control cells: 15.4±8.7%
MCF-7 cells
  pattern of E-cadherin and related antigens on immunoblot (FIG. 1): appearance of ECRA135
MCF-7 cells, 20 hr
  OA concentration at which ECRA100 levels are minimal: higher than 50 nM
  OA concentration at which ECRA135 level is maximal: 75 nM
  OA concentration at which detection of ECRA135 starts: 20 to 30 nM
  OA concentration at which the decrease in immunoreactive material (Σ) can be detected: higher than 10 nM
  OA concentration at which the decrease in immunoreactive material (Σ) is maximal: higher than 75 nM
  equivalent OA concentrations within which proportionality in the assay is kept: 30 to 75 nM
MCF-7 cells, 20 hr, corresponding to 30-75 nM
  equivalent OA concentrations within which proportionality in the assay is kept, as mass concentration: 25-60 ng OA/ml
  concentration above which the pattern characteristic for each group of toxins is maintained when the two groups are present at the same time: higher than 35 nM

## C=CCC(=C)/C=C/[C@@](C)(O)[C@H]1O[C@@H]2C[C@@H]3O[C@@H]4C[C@@H]5O[C@@H]6C[C@@H]7O[C@@H]8C[C@@H]9O[C@@H]%10C[C@@H]%11O[C@](C)(CCOS(=O)(=O)O)[C@@H](OS(=O)(=O)O)C[C@H]%11O[C@H]%10C[C@H]9O[C@H]8CC[C@@]7(C)O[C@@]6(C)CC[C@H](C)[C@H]5O[C@H]4C[C@@]3(C)O[C@H]2CC1=C [YTX, yessotoxin]
MCF-7 cells
  ECRA135 detection after treatment with YTX alone: never been detected
  pattern of E-cadherin and related antigens on immunoblot (FIG. 1): most immunoreactivity is associated with the 100 kDa (101.9±3.2 kDa) band
MCF-7 cells, 20 hr
  YTX concentration at which the increase in immunoreactive material (Σ) is detectable: about 0.2 nM
  YTX concentration at which the increase in immunoreactive material reaches maximal levels: ≥ 1 nM
MCF-7 cells, 20 hr, corresponding to 0.2-0.5 nM
  equivalent YTX concentrations within which proportionality in the assay is maintained, as mass concentration: 240-600 pg YTX/ml
MCF-7 cells, YTX 1 μM, 24 hr incubation
  ECRA135 detection: undetectable
[2]
  E-cadherin, share of total immunoreactivity: 52.0±1.7
  ECRA100, share of total immunoreactivity: 48.0±1.7
  relative total immunoreactivity (Σ), as compared to controls: 190±32%
[YTX] ≧0.5 nME/[DTX] <25 nME
  E-cadherin level, percentage of total immunoreactivity (E-cadherin+ECRA100+ECRA135) of the sample: 40-60%
  ECRA100 level, percentage of total immunoreactivity of the sample: 40-60%
  relative total immunoreactivity (Σ), percentage of total immunoreactivity in the controls: 150-250%
  concentration above which the pattern characteristic for each group of toxins is maintained when the two groups are present at the same time: > 0.4 nM

Reference: US20030138856A1, “Process for the measurement of dinophysistoxin and yessotoxin” (priority 2000, published 2003)
